Reference: patent US6492416B1, “4,5-diaryl-3(2H)-furanone derivatives as cyclooxygenase-2 inhibitors” (Pacific Corporation, priority 1999, dated 2002)
Values after ≈ are worked out from the molar mass of the structure shown.

Tests used:
[1] = target: T1, COX-2 (Mus musculus, UniProt Q05769); experiment: Evaluation of COX-2 activity: PGE2 formation in aspirin-treated, LPS-stimulated mouse peritoneal macrophages; format: cell-based
T1 sequence (Q05769 18-604): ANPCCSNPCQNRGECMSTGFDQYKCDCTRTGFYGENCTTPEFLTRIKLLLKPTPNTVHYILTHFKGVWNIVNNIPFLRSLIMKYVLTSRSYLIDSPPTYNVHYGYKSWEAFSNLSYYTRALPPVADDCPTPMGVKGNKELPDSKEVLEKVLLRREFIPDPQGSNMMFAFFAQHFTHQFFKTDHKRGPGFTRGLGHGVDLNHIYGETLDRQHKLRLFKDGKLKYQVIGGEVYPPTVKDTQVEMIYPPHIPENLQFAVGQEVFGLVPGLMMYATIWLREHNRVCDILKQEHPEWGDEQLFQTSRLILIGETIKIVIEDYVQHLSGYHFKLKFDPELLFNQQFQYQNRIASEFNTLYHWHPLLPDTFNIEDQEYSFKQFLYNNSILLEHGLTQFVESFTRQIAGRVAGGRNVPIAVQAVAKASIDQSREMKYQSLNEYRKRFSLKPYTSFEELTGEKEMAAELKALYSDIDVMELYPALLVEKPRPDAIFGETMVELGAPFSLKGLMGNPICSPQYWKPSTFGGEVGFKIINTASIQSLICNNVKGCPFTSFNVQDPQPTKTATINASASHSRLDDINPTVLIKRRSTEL
Method: (§1) Evaluation of in vitro COX-2 and COX-1 Activity [J. Pharmacol. Exp. Ther. 166, 96 (1969)]
(§2) The abdominal skin of a C57BL/6 mouse was sanitized with 70% aqueous ethanol, and was removed without damaging the peritoneum. 5 ml of cold phosphate buffer solution (PBS) was then injected into the abdominal cavity. After a minute, the peritoneal fluid containing the macrophages was collected using a syringe and a needle. The collected fluid was centrifuged for 5 min at 1500 rpm to afford pellets of cells. The pellets were then dispersed in the RPMI-1640 culture medium containing 100 units/ml penicillin and 100 μg/ml streptomycin.
The pellets dispersed as above were treated with 500 μM aspirin in order to knock out the activity of the COX-1 enzymes in the cells. The suspension was then diluted with the RPMI-1640 medium to contain 1×10^6 cells/ml. 100 μl of the suspension was added to each well of a 96-well ELISA plate. Then the plate was incubated for 2 hrs at 37° C. under 5% CO2 in order to fix the macrophages onto the plate. The cells, which were not fixed onto the plate were removed by washing with PBS two times. […] The RPMI-1640 medium containing 3% fetal bovine serum albumin was added to each well of the plate, which was followed by stimulation with 10 μg/ml lipopolysaccharide (LPS). […] The LPS-treated suspensions were incubated for 16 hours at 37° C. under 5% CO2 to induce COX-2. Then the culture medium was removed and the macrophages were washed two times with PBS. Then 130 μl RPMI-1640 culture medium was added to each well and the macrophage solutions were incubated at 37° C. for 10 minutes, which was followed by the treatment with 10 μM arachidonic acid and an appropriate amount of compounds of this invention. The plate was incubated for another 10 minutes. The upper solution was collected using a micropipette and was subjected to determination of PGE2 amount in the solution. The amount of PGE2 present in the collected solution was determined either by a known radio-immuno assay or by a known enzyme-immunoassay [Methods in Enzymol. 86, 258 (1982); Methods in Enzymol. 187, 24 (1990)]. The extent of COX-2 inhibition by a compound of the present invention was calculated by assuming, that the amount of PGE2 formed with the treatment of 10 μg/ml arachidonic acid was used is the maximum possible amount of PGE2, and that the amount of PGE2 formed without the treatment of arachidonic acid is the minimum possible amount of PGE2.
(§3) In order to determine IC50 for a compound of this invention, enzymatic activities were measured at multiple concentrations of compounds of this invention around IC50 of the compound. Usually enzymatic activities at 4˜5 concentrations were measured to calculate out IC50 for a compound of this invention.

[2] = target: T2, COX-1 (Mus musculus, UniProt P22437); experiment: Evaluation of COX-1 activity: PGE2 formation in mouse peritoneal macrophages without aspirin and LPS treatment; format: cell-based
T2 sequence (P22437 27-602): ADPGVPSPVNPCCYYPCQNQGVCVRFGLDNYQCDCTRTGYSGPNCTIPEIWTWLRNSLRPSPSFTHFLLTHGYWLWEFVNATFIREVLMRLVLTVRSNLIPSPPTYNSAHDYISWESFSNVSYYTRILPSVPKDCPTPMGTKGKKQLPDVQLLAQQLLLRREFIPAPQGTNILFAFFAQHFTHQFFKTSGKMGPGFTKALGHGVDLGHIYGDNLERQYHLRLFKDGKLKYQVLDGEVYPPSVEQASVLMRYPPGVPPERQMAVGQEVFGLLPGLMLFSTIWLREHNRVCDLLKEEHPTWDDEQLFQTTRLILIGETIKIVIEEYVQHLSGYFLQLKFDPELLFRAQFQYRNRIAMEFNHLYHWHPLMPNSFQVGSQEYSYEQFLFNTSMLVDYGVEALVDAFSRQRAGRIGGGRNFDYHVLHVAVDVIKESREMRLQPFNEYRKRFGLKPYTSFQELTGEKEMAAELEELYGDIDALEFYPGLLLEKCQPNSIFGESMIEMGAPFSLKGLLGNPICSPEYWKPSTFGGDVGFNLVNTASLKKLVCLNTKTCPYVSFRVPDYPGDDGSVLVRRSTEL
Method: as §1, §2
The pellets dispersed as above were treated with 500 μM aspirin in order to knock out the activity of the COX-1 enzymes in the cells. The suspension was then diluted with the RPMI-1640 medium to contain 1×10^6 cells/ml. 100 μl of the suspension was added to each well of a 96-well ELISA plate. Then the plate was incubated for 2 hrs at 37° C. under 5% CO2 in order to fix the macrophages onto the plate. The cells, which were not fixed onto the plate were removed by washing with PBS two times. The purity of macrophages obtained thereby was confirmed by differential counting. The RPMI-1640 medium containing 3% fetal bovine serum albumin was added to each well of the plate, which was followed by stimulation with 10 μg/ml lipopolysaccharide (LPS). Usually 5×10^5 cells/ml were present by this preparation. The LPS-treated suspensions were incubated for 16 hours at 37° C. under 5% CO2 to induce COX-2. Then the culture medium was removed and the macrophages were washed two times with PBS. Then 130 μl RPMI-1640 culture medium was added to each well and the macrophage solutions were incubated at 37° C. for 10 minutes, which was followed by the treatment with 10 μM arachidonic acid and an appropriate amount of compounds of this invention. The plate was incubated for another 10 minutes. The upper solution was collected using a micropipette and was subjected to determination of PGE2 amount in the solution. The amount of PGE2 present in the collected solution was determined either by a known radio-immuno assay or by a known enzyme-immunoassay [Methods in Enzymol. 86, 258 (1982); Methods in Enzymol. 187, 24 (1990)]. The extent of COX-2 inhibition by a compound of the present invention was calculated by assuming, that the amount of PGE2 formed with the treatment of 10 μg/ml arachidonic acid was used is the maximum possible amount of PGE2, and that the amount of PGE2 formed without the treatment of arachidonic acid is the minimum possible amount of PGE2.
In the evaluation of COX-1 inhibitory activity by a compound of the present invention, the same procedures employed for evaluation of COX-2 activity were employed, except omitting the following two steps: 1) the treatment with aspirin for knockout of COX-1 activity and 2) treatment with LPS for induction of COX-2.
as §3

melting point [°C] | IC50, μg/ml COX-2 [1] [µg/mL] | IC50, μg/ml COX-1 [2] [µg/mL] | IC50 ([1]; read-out: IC50, μg/ml COX-2 (converted)) [µM] | IC50 ([2]; read-out: IC50, μg/ml COX-1 (converted)) [µM] | Structure (SMILES)
134 to 135 | 0.03 (≈ 0.07 µM) | 5 (≈ 11.7 µM) | – | – | CC1(C)OC(c2ccc(S(C)(=O)=O)c(F)c2)=C(c2ccc(C(F)(F)F)cc2)C1=O [Example 286]
150 to 151 | 0.05 (≈ 0.126 µM) | 200 (≈ 505 µM) | – | – | CC1(C)OC(c2ccc(S(C)(=O)=O)cc2F)=C(c2cc(F)ccc2F)C1=O [Example 325]
115 to 116 | 10 (≈ 23.5 µM) | 30 (≈ 70.5 µM) | – | – | CSc1ccc(C2=C(c3cc(F)cc(F)c3)C(=O)C(C)(C)O2)cc1Br [Example 340]
194 to 195 | 0.03 (≈ 0.0656 µM) | 50 (≈ 109 µM) | – | – | CC1(C)OC(c2ccc(S(C)(=O)=O)c(Br)c2)=C(c2cc(F)cc(F)c2)C1=O [Example 345]
163 to 164 | 0.03 (≈ 0.0757 µM) | 200 (≈ 505 µM) | – | – | CC1(C)OC(c2ccc(S(C)(=O)=O)c(F)c2)=C(c2cc(F)cc(F)c2)C1=O [Example 285]
105 to 106 | 0.03 (≈ 0.073 µM) | 0.05 (≈ 0.122 µM) | – | – | CC1(C)OC(c2ccc(S(C)(=O)=O)c(F)c2)=C(c2cccc(Cl)c2)C1=S [Example 385, 4-(3-Chlorophenyl)-2,2-dimethyl-5-{3-fluoro-4-(methylsulfonyl)phenyl}-(2H)-furan-3-thione]
149 to 150 | 0.2 (≈ 0.581 µM) | 3 (≈ 8.71 µM) | – | – | C[S+]([O-])c1ccc(C2=C(c3ccccc3)C(=O)C(C)(C)O2)cc1F (stereo not drawn) [Example 291, 2,2-dimethyl-5-{3-fluoro-4-(methylsulfinyl)phenyl}-4-phenyl-3(2H)-furanone]

Second part, the compound before the results:

Structure (SMILES) | melting point [°C] | IC50, μg/ml COX-2 [1] [µg/mL] | IC50, μg/ml COX-1 [2] [µg/mL] | IC50 ([1]; read-out: IC50, μg/ml COX-2 (converted)) [µM] | IC50 ([2]; read-out: IC50, μg/ml COX-1 (converted)) [µM]
CS(=O)(=O)c1ccc(C2=C(c3cc(F)cc(F)c3)C(=O)C3(CCCC3)O2)cc1 [Example 256] | 127 to 128 | 0.03 (≈ 0.0742 µM) | 5 (≈ 12.4 µM) | – | –
COc1cccc(C2=C(c3ccc(S(N)(=O)=O)cc3)OC(C)(C)C2=O)c1 [Example 135] | 259 to 260 | 0.055 (≈ 0.147 µM) | >10 | – | –
CCCc1ccc(C2=C(c3ccc(S(C)(=O)=O)cc3)OC(C)(C)C2=O)cc1 [Example 96] | 99 to 100 | 0.02 (≈ 0.052 µM) | 3 (≈ 7.8 µM) | – | –
CCC1(C)OC(c2ccc(S(C)(=O)=O)cc2)=C(c2ccccc2F)C1=O (stereo not drawn) [Example 188] | 108 to 109 | – | – | 0.801 | 80.1
CC1(C)OC(c2ccc(S(C)(=O)=O)c(F)c2)=C(c2c(F)cccc2F)C1=O [Example 283] | 113 to 115 | 0.7 (≈ 1.77 µM) | 90 (≈ 227 µM) | – | –
CCC1(C)OC(c2ccc(S(N)(=O)=O)cc2)=C(c2ccc(C(C)=O)cc2)C1=O (stereo not drawn) [Example 45, 4-(4-Acetylphenyl)-5-{4-(aminosulfonyl)phenyl}-2-ethyl-2-methyl-3(2H)-furanone] | 154 to 155 | 0.01 (≈ 0.025 µM) | 1.07 (≈ 2.68 µM) | – | –
CC1(C)OC(c2ccc(S(C)(=O)=O)cc2)=C(c2cccc(N)c2)C1=O [Example 66, 4-(3-aminophenyl)-2,2-dimethyl-5-{4-(methylsulfonyl)phenyl}-3(2H)-furanone] | 186 to 187 | 0.05 (≈ 0.14 µM) | 50 (≈ 140 µM) | – | –
CCC1(C)OC(c2ccc(S(N)(=O)=O)cc2)=C(c2cccc(OC)c2)C1=O (stereo not drawn) [Example 236] | 69 to 70 | 0.0097 (≈ 0.025 µM) | 10.7 (≈ 27.6 µM) | – | –
COc1ccccc1C1=C(c2ccc(S(C)(=O)=O)cc2)OC(C)(C)C1=O [Example 64] | 109 to 111 | 0.1 (≈ 0.268 µM) | 50 (≈ 134 µM) | – | –
Cc1ccc(C2=C(c3ccc(S(C)(=O)=O)cc3)OC(C)(C)C2=O)s1 [Example 122] | 141 to 142 | 0.03 (≈ 0.0828 µM) | 3 (≈ 8.28 µM) | – | –
CC1(C)OC(c2ccc(S(C)(=O)=O)c(F)c2)=C(c2ccc(F)cc2F)C1=O [Example 281] | 183 to 184 | 0.1 (≈ 0.252 µM) | 10 (≈ 25.2 µM) | – | –
CC1(C)OC(c2ccc(S(C)(=O)=O)cc2)=C(c2ccc(-c3ccccc3)cc2)C1=O [Example 77] | 150 to 153 | 0.003 (≈ 0.00717 µM) | 5 (≈ 11.9 µM) | – | –
CC1(C)OC(c2ccc(S(N)(=O)=O)cc2)=C(c2ccc(O)cc2)C1=O [Example 151] | 164 to 165 | 0.0188 (≈ 0.0523 µM) | >10 | – | –
CC1(C)OC(c2ccc(S(C)(=O)=O)cc2)=C(c2cc(F)ccc2F)C1=O [Example 103] | 141 to 142 | 0.03 (≈ 0.0793 µM) | 20 (≈ 52.9 µM) | – | –
